Measured values reported in ChEMBL document CHEMBL1123653 (J Med Chem, 1987).

Columns and labels:
[1] = molecular target: T1, 5-hydroxytryptamine receptor 1B (Rattus norvegicus, UniProt P28564)
[2] = molecular target: T2, 5-hydroxytryptamine receptor 1A (Rattus norvegicus, UniProt P19327)
T2 sequence (P19327 whole entry): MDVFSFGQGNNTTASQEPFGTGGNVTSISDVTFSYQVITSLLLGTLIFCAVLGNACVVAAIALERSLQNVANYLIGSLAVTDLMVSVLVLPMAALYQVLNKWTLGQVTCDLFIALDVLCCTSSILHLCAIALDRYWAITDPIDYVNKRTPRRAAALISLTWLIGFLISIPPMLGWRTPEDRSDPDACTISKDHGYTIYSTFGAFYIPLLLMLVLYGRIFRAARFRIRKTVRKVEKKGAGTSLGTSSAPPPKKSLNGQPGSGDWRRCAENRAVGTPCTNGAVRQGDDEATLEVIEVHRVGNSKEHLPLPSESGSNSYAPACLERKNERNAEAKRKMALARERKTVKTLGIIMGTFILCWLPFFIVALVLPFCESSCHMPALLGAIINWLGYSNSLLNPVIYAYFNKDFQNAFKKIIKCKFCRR

[3] = molecular target: T3, Serotonin 1 (5-HT1) receptor (Rattus norvegicus, UniProt P28564+P30940+P19327+P28565)
[4] = molecular target: T4, Serotonin 2 (5-HT2) receptor (Rattus norvegicus, UniProt P30994+P08909+P14842)
[5] = molecular target: T4, Serotonin 2 (5-HT2) receptor; assay: Binding affinity to rat cortical membranes at 5-hydroxytryptamine 2 receptor binding site by using [3H]- DOB as a radioligand
[6] = molecular target: T4, Serotonin 2 (5-HT2) receptor; remark: listed apart in the source
[7] = molecular target: T3, Serotonin 1 (5-HT1) receptor; assay: Binding affinity towards 5-hydroxytryptamine 1 receptor was determined; assay type: protein assay
[8] = molecular target: T4, Serotonin 2 (5-HT2) receptor; remark: listed apart in the source
[9] = molecular target: T4, Serotonin 2 (5-HT2) receptor; assay: Binding affinity to rat cortical membranes at 5-hydroxytryptamine 2 receptor binding site by using [3H]- DOB as a radioligand.
[10] = molecular target: T4, Serotonin 2 (5-HT2) receptor; remark: listed apart in the source
[11] = molecular target: T1, 5-hydroxytryptamine receptor 1B; remark: listed apart in the source
Description: Binding affinity towards 5-HT1B was determined

T1 sequence (P28564 whole entry): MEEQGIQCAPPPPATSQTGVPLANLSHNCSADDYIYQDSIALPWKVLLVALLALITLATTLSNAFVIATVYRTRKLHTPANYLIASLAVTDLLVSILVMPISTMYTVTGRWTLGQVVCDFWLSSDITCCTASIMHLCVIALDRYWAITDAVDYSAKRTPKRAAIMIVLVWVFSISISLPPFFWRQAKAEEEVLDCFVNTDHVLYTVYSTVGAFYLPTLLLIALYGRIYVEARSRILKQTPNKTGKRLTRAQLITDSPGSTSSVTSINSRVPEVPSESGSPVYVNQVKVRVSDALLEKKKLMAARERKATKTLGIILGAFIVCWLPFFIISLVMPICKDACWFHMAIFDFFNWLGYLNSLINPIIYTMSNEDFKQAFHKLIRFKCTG

Structure (SMILES) | Ki [1] [nM] | Ki [2] [nM] | Ki [3] [nM] | Ki [4] [nM] | also measured
CN1C[C@@H](NS(=O)(=O)N(C)C)C[C@@H]2c3cccc4c3c(cn4C)C[C@H]21 [MESULERGINE] | 13000 | 300 |  |  | 
COc1ccc(CC(C)N)cc1OC (configuration not stated) |  |  | 64600 | 43300 | 
O=C(c1ccc(F)cc1)C1CCN(CCn2c(=O)[nH]c3ccccc3c2=O)CC1 [KETANSERIN] | 1900 | 1900 |  |  | 
COc1cc(C[C@@H](C)N)c(OC)cc1Br (stereo in doubt; form 1) |  |  | 4200 |  | 
c1ccc2nc(N3CCNCC3)ccc2c1 [QUIPAZINE] | 320 |  |  |  | Ki [5]: 17 nM; Ki [6]: 645 nM
CNCCc1c[nH]c2ccc(O)cc12 | 45 | 5 |  | 180 | 
CN(C)CCc1c[nH]c2ccc(O)cc12 [BUFOTENINE] | 910 | 259 |  | 380 | 
Clc1cccc(N2CCNCC2)c1 [CHLOROPHENYLPIPERAZINE] | 75 | 2400 |  |  | 
COc1cc([N+](=O)[O-])c(OC)cc1CC(C)N (configuration not stated) |  |  | 14100 | 300 | 
COc1ccc2[nH]cc(CCN(C)C)c2c1 [MEBUFOTENIN] | 90 | 20 | 50 |  | 
NCCc1c[nH]c2cccc(O)c12 | 1050 | 95 |  | 725 | 
CN1C[C@H](CNC(=O)OCc2ccccc2)C[C@@H]2c3cccc4c3c(cn4C)C[C@H]21 [METERGOLINE] | 25 | 6 | 20 |  | 
CCCc1cc(OC)c(CC(C)N)cc1OC (configuration not stated) |  |  | 3170 | 69 | 
c1ccc2c(N3CCNCC3)cccc2c1 |  |  |  |  | Ki [7]: 5 nM
O=C(CCCN1CCC2(CC1)C(=O)NCN2c1ccccc1)c1ccc(F)cc1 [SPIPERONE] | 4800 | 40 | 160 |  | 
c1ccc2cc(N3CCNCC3)ccc2c1 |  |  |  |  | Ki [7]: 265 nM
CN(C)CCCSc1ccccc1NC(=O)/C=C/c1ccccc1 [CINANSERIN] | 1000 |  | 3500 | 4 | Ki [5]: 4 nM; Ki [6]: 4 nM
COc1cc([N+](=O)[O-])c(OC)cc1C[C@@H](C)N |  |  | 13200 | 210 | 
Cc1nc2ccccn2c(=O)c1CCN1CCC(C(=O)c2ccc(F)cc2)CC1 [PIRENPERONE] | 6600 | 1700 |  |  | Ki [8]: 0.3 nM; Ki [6]: 1 nM
COc1ccc2[nH]cc(C3=CCNCC3)c2c1 [RU-24969] | 4 |  |  |  | 

Structure (SMILES) | Ki [1] [nM] | Ki [2] [nM] | Ki [3] [nM] | Ki [4] [nM] | also measured
COc1cc(C[C@H](C)N)c(OC)cc1Br |  |  | 5000 |  | 
CCc1cc(OC)c(CC(C)N)cc1OC (configuration not stated) |  |  | 4570 |  | 
COc1cc(CC(C)N)c(OC)cc1C (configuration not stated) [DOM] |  |  | 2890 |  | 
COc1cc(C[C@@H](C)N)c(OC)cc1C |  |  | 3550 |  | 
C[C@@H](N)Cc1ccc2c(c1)OCO2 |  |  | 13000 |  | 
COc1cc(C[C@H](C)N)c(OC)cc1I |  |  | 920 | 35 | 
FC(F)(F)c1cccc(N2CCNCC2)c1 | 30 | 1950 | 20 |  | 
COc1cc(C[C@@H](C)N)c(OC)cc1Br (stereo in doubt; form 2) |  |  | 4200 |  | 
CC(C)NCC(O)COc1cccc2[nH]ccc12 (single isomer, unassigned; (-)) [PINDOLOL] |  | 20 |  |  | 
CCCN(CCC)C1CCc2cccc(O)c2C1 (configuration not stated) [8-OH-DPAT] |  |  |  | 5500 | Ki [9]: 700 nM
c1ccc(N2CCNCC2)cc1 [PHENYLPIPERAZINE] |  |  |  |  | Ki [7]: 135 nM
NCCc1c[nH]c2ccc(C(N)=O)cc12 | 5 | 0.2 |  |  | 
CN[C@H](C)Cc1cc(OC)c(C)cc1OC |  |  | 4300 | 260 | 
COc1ccc(CC(C)N)cc1 (configuration not stated) [PARA-METHOXYAMPHETAMINE] |  |  | 79400 | 33600 | 
CNC(C)Cc1cc(OC)c(C)cc1OC (configuration not stated) |  |  | 3870 | 415 | 
NCCc1c[nH]c2ccccc12 [TRYPTAMINE] |  | 170 |  | 2895 | Ki [5]: 50 nM
O=C1c2ccccc2S(=O)(=O)N1CCCCN1CCN(c2ncccn2)CC1 [IPSAPIRONE] |  |  |  |  | IC50 [10]: 10000 nM; IC50 [11]: 26000 nM
COc1cc(CC(C)N)c(OC)cc1F (configuration not stated) |  |  | 3370 | 1110 | 
COc1cc(OC)c(OC)cc1CC(C)N (configuration not stated) |  |  | 46400 |  | 
NCCc1c[nH]c2cc(O)ccc12 | 5890 | 1590 |  | 11500 | 
